Data as given in patent US20230085307A1, “PYRIDAZINONE COMPOUND AND HERBICIDE” (NISSAN CHEMICAL CORPORATION, priority 2019, published 2023).

How the values were obtained:
persian speedwell [1] = assay: Test Example 5: herbicidal effect by foliage application, plastic box (Table 20, symbol R); assay type: in vivo, Persian speedwell (Veronica persica); conditions: foliage application, AAH 320 g/ha, three weeks after application
Method in brief: (§1)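 Foliar spray test: emulsion formulation diluted in water to a set application rate, sprayed onto 14-day-old plants raised in diluvial soil at 25° C to 30° C under glass. Both herbicidal effect and crop effect rated visually three weeks later.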

Italian ryegrass [2] = assay: Test Example 5: herbicidal effect by foliage application, plastic box (Table 20, symbol K); assay type: in vivo, Italian ryegrass (Lolium multiflorum); conditions: foliage application, AAH 320 g/ha, three weeks after application
Method in brief: as §1

wild oat [3] = assay: Test Example 5: herbicidal effect by foliage application, plastic box (Table 20, symbol I); assay type: in vivo, wild oat (Avena fatua); conditions: foliage application, AAH 320 g/ha, three weeks after application
Method in brief: as §1

lambsquarters [4] = assay: Test Example 5: herbicidal effect by foliage application, plastic box (Table 20, symbol O); assay type: in vivo, lambsquarters (Chenopodium album); conditions: foliage application, AAH 320 g/ha, three weeks after application
Method in brief: as §1

chickweed [5] = assay: Test Example 5: herbicidal effect by foliage application, plastic box (Table 20, symbol P); assay type: in vivo, common chickweed (Stellaria media); conditions: foliage application, AAH 320 g/ha, three weeks after application
Method in brief: as §1

redroot pigweed [6] = assay: Test Example 5: herbicidal effect by foliage application, plastic box (Table 20, symbol N); assay type: in vivo, redroot pigweed (Amaranthus retroflexus); conditions: foliage application, AAH 320 g/ha, three weeks after application
Method in brief: as §1

blackgrass [7] = assay: Test Example 5: herbicidal effect by foliage application, plastic box (Table 20, symbol J); assay type: in vivo, blackgrass (Alopecurus myosuroides); conditions: foliage application, AAH 320 g/ha, three weeks after application
Method in brief: as §1

southern crabgrass [8] = assay: Test Example 5: herbicidal effect by foliage application, plastic box (Table 20, symbol F); assay type: in vivo, southern crabgrass (Digitaria ciliaris); conditions: foliage application, AAH 320 g/ha, three weeks after application
Method in brief: as §1

windgrass [9] = assay: Test Example 5: herbicidal effect by foliage application, plastic box (Table 20, symbol L); assay type: in vivo, windgrass (Apera spica-venti); conditions: foliage application, AAH 320 g/ha, three weeks after application
Method in brief: as §1

green foxtail [10] = assay: Test Example 5: herbicidal effect by foliage application, plastic box (Table 20, symbol G); assay type: in vivo, green foxtail (Setaria viridis); conditions: foliage application, AAH 320 g/ha, three weeks after application
Method in brief: as §1

green foxtail [11] = assay: Test Example 4: herbicidal effect by soil treatment (Table 19, symbol G); assay type: in vivo, green foxtail (Setaria viridis); conditions: AAH 320 g/ha
Method in brief: (§2)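 Herbicidal effect was rated 3 weeks after treatment, using the scoring criteria of an earlier test. The compound, formulated as an emulsion and diluted in water to a set herbicide amount, had been sprayed uniformly on soil over freshly sown seeds. Growth took place in a greenhouse at 25° C. to 30° C.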

chickweed [12] = assay: Test Example 4: herbicidal effect by soil treatment (Table 19, symbol P); assay type: in vivo, common chickweed (Stellaria media); conditions: AAH 320 g/ha
Method in brief: as §2

velvetleaf [13] = assay: Test Example 4: herbicidal effect by soil treatment (Table 19, symbol M); assay type: in vivo, velvetleaf (Abutilon theophrasti); conditions: AAH 320 g/ha
Method in brief: as §2

blackgrass [14] = assay: Test Example 4: herbicidal effect by soil treatment (Table 19, symbol J); assay type: in vivo, blackgrass (Alopecurus myosuroides); conditions: AAH 320 g/ha
Method in brief: as §2

barnyard grass [15] = assay: Test Example 5: herbicidal effect by foliage application, plastic box (Table 20, symbol H); assay type: in vivo, barnyard grass (Echinochloa crus-galli); conditions: foliage application, AAH 320 g/ha, three weeks after application
Method in brief: as §1

persian speedwell [16] = assay: Test Example 4: herbicidal effect by soil treatment (Table 19, symbol R); assay type: in vivo, Persian speedwell (Veronica persica); conditions: AAH 320 g/ha
Method in brief: as §2

barnyard grass [17] = assay: Test Example 4: herbicidal effect by soil treatment (Table 19, symbol H); assay type: in vivo, barnyard grass (Echinochloa crus-galli); conditions: AAH 320 g/ha
Method in brief: as §2

Italian ryegrass [18] = assay: Test Example 4: herbicidal effect by soil treatment (Table 19, symbol K); assay type: in vivo, Italian ryegrass (Lolium multiflorum); conditions: AAH 320 g/ha
Method in brief: as §2

redroot pigweed [19] = assay: Test Example 4: herbicidal effect by soil treatment (Table 19, symbol N); assay type: in vivo, redroot pigweed (Amaranthus retroflexus); conditions: AAH 320 g/ha
Method in brief: as §2

southern crabgrass [20] = assay: Test Example 4: herbicidal effect by soil treatment (Table 19, symbol F); assay type: in vivo, southern crabgrass (Digitaria ciliaris); conditions: AAH 320 g/ha
Method in brief: as §2

lambsquarters [21] = assay: Test Example 4: herbicidal effect by soil treatment (Table 19, symbol O); assay type: in vivo, lambsquarters (Chenopodium album); conditions: AAH 320 g/ha
Method in brief: as §2

windgrass [22] = assay: Test Example 4: herbicidal effect by soil treatment (Table 19, symbol L); assay type: in vivo, windgrass (Apera spica-venti); conditions: AAH 320 g/ha
Method in brief: as §2

velvetleaf [23] = assay: Test Example 5: herbicidal effect by foliage application, plastic box (Table 20, symbol M); assay type: in vivo, velvetleaf (Abutilon theophrasti); conditions: foliage application, AAH 320 g/ha, three weeks after application
Method in brief: as §1

wild oat [24] = assay: Test Example 4: herbicidal effect by soil treatment (Table 19, symbol I); assay type: in vivo, wild oat (Avena fatua); conditions: AAH 320 g/ha
Method in brief: as §2

SMILES: Cc1nn(C)c(=O)c(-c2c(-c3ccc(OS(=O)(=O)C(F)(F)F)cc3)sc3ccccc23)c1O [1-147]
- R: persian speedwell, herbicidal effect (persian speedwell [1]): 5 (Herbicidal rate of 90% or more (almost completely withered))
- K: Italian ryegrass, herbicidal effect (Italian ryegrass [2]): 0 (Herbicidal rate of 5% or less (almost no effect))
- I: wild oat, herbicidal effect (wild oat [3]): 0 (Herbicidal rate of 5% or less (almost no effect))
- O: lambsquarters, herbicidal effect (lambsquarters [4]): 2 (Herbicidal rate of 20% or more and less than 40%)
- P: chickweed, herbicidal effect (chickweed [5]): 5 (Herbicidal rate of 90% or more (almost completely withered))
- N: redroot pigweed, herbicidal effect (redroot pigweed [6]): 0 (Herbicidal rate of 5% or less (almost no effect))
- J: blackgrass, herbicidal effect (blackgrass [7]): 0 (Herbicidal rate of 5% or less (almost no effect))
- F: southern crabgrass, herbicidal effect (southern crabgrass [8]): 0 (Herbicidal rate of 5% or less (almost no effect))
- L: windgrass, herbicidal effect (windgrass [9]): 0 (Herbicidal rate of 5% or less (almost no effect))
- G: green foxtail, herbicidal effect (green foxtail [10]): 0 (Herbicidal rate of 5% or less (almost no effect))
- G: green foxtail, herbicidal effect rating (green foxtail [11]): 0 (Herbicidal rate of 5% or less (almost no effect))
- P: chickweed, herbicidal effect rating (chickweed [12]): 5 (Herbicidal rate of 90% or more (almost completely withered))
- M: velvetleaf, herbicidal effect rating (velvetleaf [13]): 0 (Herbicidal rate of 5% or less (almost no effect))
- J: blackgrass, herbicidal effect rating (blackgrass [14]): 0 (Herbicidal rate of 5% or less (almost no effect))
- H: barnyard grass, herbicidal effect (barnyard grass [15]): 0 (Herbicidal rate of 5% or less (almost no effect))
- R: persian speedwell, herbicidal effect rating (persian speedwell [16]): 5 (Herbicidal rate of 90% or more (almost completely withered))
- H: barnyard grass, herbicidal effect rating (barnyard grass [17]): 0 (Herbicidal rate of 5% or less (almost no effect))
- K: Italian ryegrass, herbicidal effect rating (Italian ryegrass [18]): 0 (Herbicidal rate of 5% or less (almost no effect))
- N: redroot pigweed, herbicidal effect rating (redroot pigweed [19]): 2 (Herbicidal rate of 20% or more and less than 40%)
- F: southern crabgrass, herbicidal effect rating (southern crabgrass [20]): 0 (Herbicidal rate of 5% or less (almost no effect))
- O: lambsquarters, herbicidal effect rating (lambsquarters [21]): 3 (Herbicidal rate of 40% or more and less than 70%)
- L: windgrass, herbicidal effect rating (windgrass [22]): 0 (Herbicidal rate of 5% or less (almost no effect))
- M: velvetleaf, herbicidal effect (velvetleaf [23]): 1 (Herbicidal rate of 5% or more and less than 20%)
- I: wild oat, herbicidal effect rating (wild oat [24]): 0 (Herbicidal rate of 5% or less (almost no effect))
